Assay results: patent US8653283B2, “Anticancer agents” (The Regents of The University of California, priority 2009, dated 2014)

Legend:
[1] = system: human colon tumor HCT-116 cell line; settings: for GI50: HCT-116 cells, MTT assay, in house
Bacillus subtilis 6633 = assay: Minimum inhibitory concentration (MIC) assay; type: cell-based; settings: Bacillus subtilis 6633, 37° C. for 18 h, no visible bacterial growth, duplicates
Protocol: Minimum Inhibitory Concentration (MIC) Assay of Spirohexenolide A (1), using Bacillus subtilis 6633.
Spirohexenolide A (1) in dimethyl sulfoxide (DMSO) was diluted to 10, 15, 30, 60, 120, 250, 500, and 1000 μg/mL stocks in tryptic soy broth with a final concentration of 1% DMSO. B. subtilis, cultured for 18 h at 37° C. in tryptic soy broth, was inoculated at 1/10000 to a final volume of 200 μL per well on a 96 well plate and then treated with 2 μL of a stock solution of 1 (10, 15, 30, 60, 120, 250, 500, and 1000 μg/mL in tryptic soy broth containing 1% DMSO). […] The compound was tested in duplicates.

melanoma = assay: NCI-60 human tumor cell line screen, single dose; type: cell-based; settings: dosed at 10 μM, single dose NCI-60
prostate = assay: NCI-60 human tumor cell line screen, single dose; type: cell-based; settings: dosed at 10 μM, single dose NCI-60
renal cancers = assay: NCI-60 human tumor cell line screen, single dose; type: cell-based; settings: dosed at 10 μM, single dose NCI-60
[2] = system: NCI-60 human tumor cell line; assay: NCI-60 human tumor cell line screen, multiple dose / dose-response; type: cell-based
HCT-116 cells [3] = assay: Cell cycle effects by three-color confocal fluorescence microscopy; type: cell-based, human
Text: Images in a) and b) depict live cells. c) A confocal fluorescent image indicating the effects of 1 has on the cell structure. Cells treated as in a) were fixed with 0.1% formalin and stained for their DNA content with SYTO-60 (false colored in blue) (Wlodkowic et al., Cytometry A, 73:496-507 (2008)), actin with FITC-phalloidin (green) (Verderame et al., Proc Natl Acad Sci USA, 77:6624-6628 (1980)), and microtubules with BODIPY FL-paclitaxel (red) (Bicamumpaka et al., Int J Mol Med, 2:161-165 (1998)). For each experiment, HCT-116 cells were cultured to 10^6 cells/cm^2 in a 35 mm poly-D-lysine coated glass-bottom dish and treated with 1 mL of 10 μM 1 in Dulbecco's modified essential medium (DMEM) containing 10% fetal bovine serum (FBS), 100 U/mL penicillin-G and 100 μg/mL streptomycin.
The effects of 1 on the cell cycle were also evaluated. HCT-116 cells cultured in DMEM were treated 1 h before the onset of mitosis with 10 μM 1 in DMEM. After 12 h (several hours after the completion of mitosis), the cells were fixed for 5 min with 0.5% formalin and 0.1% glutaraldehyde in PBS pH 7.2, washed extensively with PBS pH 7.2, treated with a cocktail of fluorescent probes to visualize DNA, actin, and microtubules and examined using three-color confocal fluorescence microscopy. […]

[4] = system: breast cancer cells (HeLa); assay: Inhibition of mitosis; type: cell-based; settings: by inhibiting the exit from anaphase
[5] = system: neuroblastoma cells (Neuro2a); assay: Inhibition of mitosis; type: cell-based; settings: by inhibiting the exit from anaphase
HCT-116 cells [6] = assay: Cellular uptake and subcellular localization by fluorescence microscopy; type: cell-based, human; settings: live HCT-116 cells, 10 μM, time lapse over 24 h
Protocol: HCT-116 cells (ATCC CCL-247) were cultured in Dulbecco's modification of Eagle's medium (DMEM) with 4.5 g L^−1 glucose, […], and 5% heat inactivated fetal calf serum (FCS) in glass-bottom dishes. Fluorescent images were collected on a Leica (Wetzlar, Germany) DMI6000 inverted confocal microscope with a Yokogawa (Tokyo, Japan) spinning disk confocal head, Orca ER High Resolution B&W Cooled CCD camera (6.45 μm/pixel at 1×) (Hamamatsu, Sewickley, Pa.), Plan Apochromat 40×/1.25 na and 63×/1.4 na objective, and a Melles Griot (Carlsbad, Calif.) Argon/Krypton 100 mW air-cooled laser for 488, 568, and 647 nm excitations. Confocal z-stacks were acquired in all experiments. […]
Cellular uptake and localization of 1 in HCT-116 tumor cells was then evaluated using fluorescence microscopy. […] HCT-116 cells were treated with 10 μM 1 in DMEM containing 10% FCS, 100 U/mL penicillin-G, and 100 μg/mL streptomycin and analyzed by fluorescence microscopy. […] Within 6-12 h, fluorescence from 1 concentrated within vesicles surrounding the nucleus and remained in these structures (FIG. 4b). […]
The cellular uptake of localization of 1 in HCT-116 tumor cells was then evaluated using fluorescence microscopy. […] HCT-116 cells were treated with 10 μM 1 in DMEM containing 10% FCS, 100 U/mL penicillin-G and 100 μg/mL streptomycin and analyzed by fluorescence microscopy. […]

[7] = mouse, in vivo
[8] = target: T1, human migration inhibitory factor (hMIF) (Homo sapiens, UniProt P14174); assay: Anti-IAF tag immunoprecipitation, LC-MS/MS identification and Western blot; type: binding; settings: HCT-116 cell lysate, ~12 kDa band
T1 construct: confirmed the presence of hMIF in the immunoprecipitated fraction of HCT-116 cell lysate; endogenous in cells; host or cells: HCT-116 cell lysate
T1 sequence (P14174 2-115 limits assumed): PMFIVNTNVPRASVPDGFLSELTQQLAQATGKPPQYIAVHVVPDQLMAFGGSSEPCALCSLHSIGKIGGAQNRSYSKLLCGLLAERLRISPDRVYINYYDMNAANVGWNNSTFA
Text: A) Anti-IAF immunoprecipitation studies identify a ˜12 kDa band. Lane L1, L2 and L3 depict HCT116 cell lysate, an IAF dye elution (bands correspond to fragments of the anti-IAF mAb) and glycine wash, respectively. The ˜12 kDa band was identified in the glycine wash. B) Trypsin-digest LC-MS/MS analysis identified three peptides that overlapped with the hMIF protein (shown in red). C) Western blot analysis using a mouse anti-MIF mAb confirmed the presence of hMIF in the immunoprecipitated fraction of HCT-116 cell lysate, as well as in E. coli lysates bearing recombinanthMIF. Arrow denotes the position of hMIF. The upper bands arose from the mouse anti-IAF mAb used in this experiment (background).
Attention was then turned to screening for proteins that bind to the spirohexenolides. Using the affinity properties of the IAF probe 4, we deployed an anti-IAF tag immunoprecipitation protocol to isolate a 12 kDa band (Lane L3 in FIG. 9A). […] Western blot analysis (FIG. 9C) confirmed hMIF the identification of hMIF.

With spirohexenolide B as the compound, how does the GI50 [1] read?
The GI50 was 61.2 ± 7.8 µM.

Which MIC (Bacillus subtilis 6633) does the source give for spirohexenolide A here?
The MIC was 12.25 µM.

And the inhibition (melanoma)?
The inhibition was 96%.

What about the inhibition (prostate) of the same compound?
Its inhibition is 85%.

And the inhibition (renal cancers)?
Its inhibition is 95%.

And the “activity (GI50) by cell line” value ([2]; leukemia (CCRF-CEM, MOLT-4, RPMI-8226), lung cancer (HOP-92), colon cancer (SW-629) cell lines)?
The value was “enhanced activity”.

What about the “sensitivity in dose-response assays” value ([2]; leukemia, renal cancer, and melanoma cell lines) of the same compound?
Its value is “selective sensitivity”.

What about the “effect on the cell cycle” value (HCT-116 cells [3]; 10 μM, treated 1 h before onset of mitosis, fixed after 12 h) of the same compound?
The value was “induced cell cycle arrest during mitosis”.

What about the inhibition of mitosis (HCT-116 cells [3]; colon cancer cells (HCT111), by inhibiting the exit from anaphase) of the same compound?
The inhibition of mitosis was “inhibit mitosis”.

What about the inhibition of mitosis [4] of the same compound?
Its inhibition of mitosis is “inhibit mitosis”.

What about the inhibition of mitosis [5] of the same compound?
Its inhibition of mitosis is “inhibit mitosis”.

What about the “cell phenotype after treatment” value (HCT-116 cells [6]) of the same compound?
Its value is “characteristic apoptotic phenotype”.

What about the IC50 [1] of the same compound?
Its IC50 is 500 nM.

What about the GI50 [1] of the same compound?
The GI50 was 36 ± 5.1 µM.

And the “single dose producing toxicity” value [7]?
Its value is 6 to 10 mg/kg.

Which “cell phenotype after treatment” value (HCT-116 cells [6]) does the source give for `CC1=C[C@]2(C)/C=C(C)/C=C/C[C@@H](OC(=O)CCCn3cc(CNC(=O)Cc4cc(=O)oc5cc(N(C)C)ccc45)nn3)/C=C3C=C/C(=C4\C(=O)O[C@]2(C[C@@H]1C)C4=O)OC/3` [probe 3] here?
Its value is “characteristic apoptotic phenotype”.

With `CC1=C[C@]2(C)/C=C(C)/C=C/C[C@@H](OC(=O)CCC(=O)NCCCCCCNC(=O)Cc3cc(=O)oc4cc(N(C)C)ccc34)/C=C3C=C/C(=C4\C(=O)O[C@]2(C[C@@H]1C)C4=O)OC/3` [probe 4] as the compound, how does the “protein isolated by the probe” value [8] read?
The value was “human migration inhibitory factor (hMIF)”.
